Blank lines part the entries; values can stand above or below the compound they belong to.
Key:
Type in all cases: functional
Meloidogyne incognita [1] = experiment: Nematocidal activity against Meloidogyne incognita second-stage juveniles up to 72 hrs
Rodentolepis nana = experiment: Antihelmintic activity against Hymenolepis nana
[2] = tested on: Nippostrongylus brasiliensis; experiment: Nematocidal activity against Nippostrongylus brasiliensis L4 larval stage
[3] = Antiparasitic activity against Taenia solium
Meloidogyne incognita [4] = experiment: Nematocidal activity against Meloidogyne incognita; details: for IC50: Meloidogyne incognita
Taenia crassiceps = experiment: Cysticidal activity against Taenia crassiceps cysts after 11 days by trypan blue exclusion method; details: 264 h
Schistosoma mansoni = experiment: Antiparasitic activity against Schistosoma mansoni
Haemonchus contortus [5] = experiment: Antihelmintic activity against egg stage of Haemonchus contortus
Haemonchus contortus [6] = experiment: Antihelmintic activity against larval stage of Haemonchus contortus
Brugia malayi = experiment: Antiparasitic activity against Brugia malayi
Metaphire posthuma = experiment: Antihelmintic activity against Pheretima posthuma
Ascaridia galli = experiment: Antihelmintic activity against Ascaridia galli
Caenorhabditis elegans = experiment: Nematocidal activity against Caenorhabditis elegans
[7] = tested on: Trichostrongylus colubriformis; experiment: Antihelmintic activity against Trichostrongylus colubriformis
Haemonchus contortus [8] = experiment: Antihelmintic activity against Haemonchus contortus L3 larval stage
Ascaris suum = experiment: Antiparasitic activity against L3 and L4 larval stages of Ascaris suum
Paramphistomum = experiment: Antiparasitic activity against Paramphistomum sp.
[9] = tested on: Raillietina echinobothrida; experiment: Antiparasitic activity against Raillietina echinobothrida
Haemonchus contortus [10] = experiment: Nematocidal activity against Haemonchus contortus
Setaria cervi = experiment: Antiparasitic activity against Setaria cervi
Meloidogyne incognita [11] = experiment: Nematocidal activity against Meloidogyne incognita second-stage juveniles after 3 days by light microscopic method
Panagrellus redivivus = experiment: Antiparasitic activity against Panagrellus redivivus
[12] = tested on: Bursaphelenchus xylophilus; experiment: Antiparasitic activity against Bursaphelenchus xylophilus

Structure (SMILES): Cc1ccc(C(C)C)cc1 [P-CYMENE]
IC50 (Meloidogyne incognita [1]): 3240 µM

Structure (SMILES): CCCCC[C@H](O)C[C@H](O)CCc1ccc(O)c(OC)c1
EC (Rodentolepis nana): 0.001 mM

Structure (SMILES): CCCC(=O)C1=C(O)C(C)(C)C(O)=C(Cc2c(O)c(CC3=C(O)C(C)(C)C(O)=C(C(C)=O)C3=O)c(O)c(C(=O)CCC)c2O)C1=O
IC50 [2]: 37 µM

Structure (SMILES): CC(C)CCCCCCCCCCCCCC(=O)OC[C@@H](O)CO
EC [3]: 29.5 mM

Structure (SMILES): C=CCc1ccc(OC)cc1 [ESTRAGOLE]
IC50 (Meloidogyne incognita [4]): 1250 µM

Structure (SMILES): O=c1cc(-c2ccccc2)oc2cc(O)cc(O)c12 [CHRYSIN]
IC50 (Taenia crassiceps): 80 µM

Structure (SMILES): O=C1c2cccc(O)c2C(=O)C2C(O)=C(O)C(CO)=CC12 (stereo not given)
EC (Schistosoma mansoni): 0.17 mM

Structure (SMILES): C/C=C/c1ccc(OC)cc1 [ANETHOLE]
IC50 (Haemonchus contortus [5]): 4650 µM | IC50 (Haemonchus contortus [6]): 14200 µM

Structure (SMILES): C=C1CC[C@H]2[C@@](C)(CCC[C@]2(C)C(=O)O)[C@@H]1C/C=C(\C)[C@H]1CCc2c(O)c(C(=O)CCC)c(O)c(CC3=C(O)C(C)(C)C(O)=C(C(C)=O)C3=O)c2O1
IC50 [2]: 22 µM

Structure (SMILES): O=C1C[C@@H](c2ccccc2)Oc2cc(O)cc(O)c21 [PINOCEMBRIN]
IC50 (Taenia crassiceps): 2 µM

Structure (SMILES): CCO[C@@H]1O[C@H](CO)[C@H](O)[C@H](O)[C@H]1O
EC (Brugia malayi): >2.4 mM

Structure (SMILES): COc1cc(/C=C/C(=O)CC(=O)/C=C/c2ccc(O)c(OC)c2)ccc1O [CURCUMIN]
EC (Schistosoma mansoni): 0.005 mM

Structure (SMILES): CCCCCCCCCCCCCCCCC(=O)OC[C@@H](O)CO
EC [3]: 29.5 mM

Structure (SMILES): CCCCCCCCC[C@H](O)CC(=O)CCc1ccc(O)c(OC)c1
EC (Rodentolepis nana): 0.001 mM

Structure (SMILES): CCCC(=O)C1=C(O)C(C)(C)C(O)=C(Cc2c(OC)cc(O)c(C(=O)CCC)c2O)C1=O [DESASPIDIN]
EC (Schistosoma mansoni): 0.01 mM

Structure (SMILES): CC1=CC2C(=O)c3cccc(O)c3C(=O)C2C(O)=C1O (stereo not given)
EC (Schistosoma mansoni): 0.19 mM

Structure (SMILES): CC1(C)OC(=O)NC(C(=O)O)c2ccc(O)cc21 (stereo not given)
EC (Metaphire posthuma): 3.9 mM | EC (Ascaridia galli): 3.9 mM

Structure (SMILES): CCCCC[C@H](O)CC(=O)CCc1cc(O)c(O)c(OC)c1
EC (Rodentolepis nana): 0.001 mM

Structure (SMILES): C[C@H]1CC[C@@]2(OC1)O[C@H]1C[C@H]3[C@@H]4CC[C@H]5C[C@@H](O[C@@H]6O[C@H](CO)[C@H](O[C@@H]7O[C@H](CO)[C@@H](O)[C@H](O[C@@H]8OC[C@@H](O)[C@H](O)[C@H]8O)[C@H]7O[C@@H]7OC[C@@H](O)[C@H](O)[C@H]7O)[C@H](O)[C@H]6O[C@@H]6O[C@@H](C)[C@H](O)[C@@H](O)[C@H]6O)CC[C@]5(C)[C@H]4CC[C@]3(C)[C@H]1[C@@H]2C
IC50 (Caenorhabditis elegans): 60 µM

Structure (SMILES): CC(C)=C[C@H](O)C[C@@H](C)[C@H]1CC[C@@]2(C)[C@@H]3[C@@H](O)C=C4[C@@H](CC[C@H](O)C4(C)C)[C@@]3(C=O)CC[C@]12C
IC50 (Caenorhabditis elegans): 30 µM

Structure (SMILES): CCCC(=O)c1c(O)c(CC2=C(O)C(C)(C)C(O)=C(C(C)=O)C2=O)c(O)c(CC2=C(O)C(C)(C)C(O)=C(C(C)=O)C2=O)c1O
IC50 [2]: 28 µM

Structure (SMILES): CCCCC/C=C/C(=O)CCc1ccc(O)c(OC)c1 [SHOGAOL]
EC (Rodentolepis nana): 0.001 mM

IC50 [7]: 190 µM
Structure (SMILES): C=C(C)[C@@H]1CC[C@]2(C)CC[C@]3(C)[C@H](CC[C@@H]4[C@@]5(C)CC[C@H](O)C(C)(C)[C@@H]5CC[C@]43C)[C@@H]12 [LUPEOL]
IC50 (Caenorhabditis elegans): 5 to 6 µM | IC50 (Haemonchus contortus [8]): 50 µM

Structure (SMILES): C=CCc1ccc(OC)c(OC)c1 [METHYLEUGENOL]
IC50 (Meloidogyne incognita [4]): 500 µM

Structure (SMILES): CC1(C)C[C@@H](O)[C@]2(C(=O)O)CC[C@]3(C)C(=CC[C@@H]4[C@@]5(C)CCC(=O)C(C)(C)[C@@H]5CC[C@]43C)[C@@H]2C1
EC (Meloidogyne incognita [4]): 2.12 mM

Structure (SMILES): C=C(C)[C@@H]1CCC2(C)OC2C1 (single isomer, unassigned; (+))
EC (Schistosoma mansoni): 0.16 mM

Structure (SMILES): CCCC(=O)C1=C(O)C(C)(C)C(O)=C(Cc2c(O)c(C)c(OC)c(C(=O)CCC)c2O)C1=O
EC (Schistosoma mansoni): 0.01 mM

IC50 (Haemonchus contortus [5]): 3660 µM
Structure (SMILES): Cc1ccc(C(C)C)c(O)c1 [THYMOL]
IC50 (Haemonchus contortus [6]): 16600 µM

Structure (SMILES): CCCCCCCCC/C=C/C(=O)CCc1ccc(O)c(OC)c1
EC (Rodentolepis nana): 0.001 mM

Structure (SMILES): CCCCCC(=O)/C=C(O)/C=C/c1ccc(O)c(OC)c1
EC (Rodentolepis nana): 0.001 mM

Structure (SMILES): CCCCC[C@H](O)CC(=O)CCc1ccc(O)c(OC)c1 [GINGEROL]
EC (Rodentolepis nana): 0.001 mM

Structure (SMILES): CO[C@H]1[C@H](O)[C@@H](O)[C@@H](O)[C@H](O)[C@@H]1O [METHYLINOSITOL]
IC50 (Haemonchus contortus [8]): 22700 µM

Structure (SMILES): CCCCCCCCCCCCCCCCCCCCCC(=O)OC[C@@H](O)CO
EC [3]: 23.24 mM

Structure (SMILES): CC(C)[C@@]12C=C[C@@](C)(CC1)OO2 [(Z)-ASCARIDOLE]
IC50 (Meloidogyne incognita [1]): 190 µM

Structure (SMILES): O=C/C=C/c1ccccc1 [CINNAMALDEHYDE]
EC (Ascaris suum): 0.2 mM

Structure (SMILES): O=c1c(-c2ccc(O)cc2)coc2cc(O)cc(O)c12 [GENISTEIN]
EC (Paramphistomum): 0.74 mM | EC [9]: 0.74 mM

Structure (SMILES): C=C1CC[C@H]2[C@@](C)(CCC[C@]2(C)C(=O)O)[C@@H]1C/C=C(\C)[C@@H]1CCc2c(O)c(C(=O)CCC)c(O)c(CC3=C(O)C(C)(C)C(O)=C(C(C)=O)C3=O)c2O1
IC50 [2]: 34 µM

Structure (SMILES): C=C1C(=O)O[C@@H]2[C@H]3C(CO)=CC(=O)C3=C(C)CC[C@@H]12 [DEOXYLACTUCIN]
EC (Haemonchus contortus [10]): 4.99 mM

Structure (SMILES): CC1(C)CC[C@]2(C(=O)O)CC[C@]3(C)C(=CC[C@@H]4[C@@]5(C)CC[C@H](O)C(C)(C)[C@@H]5CC[C@]43C)[C@@H]2C1 [OLEANOLIC_ACID]
EC (Brugia malayi): 0.06 to 0.13 mM

Structure (SMILES): C=C(C)[C@@H]1CC[C@]2(C(=O)O)CC[C@]3(C)[C@H](CC[C@@H]4[C@@]5(C)CC[C@H](O)C(C)(C)[C@@H]5CC[C@]43C)[C@@H]12 [BETULINIC ACID]
IC50 (Caenorhabditis elegans): 150 to 220 µM | IC50 [7]: 180 µM | IC50 (Haemonchus contortus [8]): 110 µM | EC [3]: 21.9 mM

Structure (SMILES): CC(C)=CC(=O)O[C@@H]1C[C@@H](C)C(C)(O)[C@H]2C3=CC[C@@H]4[C@@]5(C)CC[C@H](O)C(C)(C)[C@@H]5CC[C@@]4(C)[C@]3(C)CC[C@]21C(=O)O (stereo not given in full)
EC (Meloidogyne incognita [4]): 1.75 mM

Structure (SMILES): COc1cc(CCC(=O)C[C@@H](O)CCc2ccc(O)c(OC)c2)ccc1O
EC (Rodentolepis nana): 0.001 mM

Structure (SMILES): C[C@H]1[C@H](C)CC[C@]2(C(=O)O)CC[C@]3(C)C(=CC[C@@H]4[C@@]5(C)CC[C@H](O)C(C)(C)[C@@H]5CC[C@]43C)[C@H]12 [URSOLIC ACID]
IC50 (Caenorhabditis elegans): 50 µM | EC (Meloidogyne incognita [4]): 2.18 mM | EC (Setaria cervi): 0.004 mM

Structure (SMILES): CC(C)[C@]12C=C[C@](C)(CC1)COOC2
IC50 (Meloidogyne incognita [1]): 7860 µM

Structure (SMILES): C=C1C(=O)O[C@@H]2[C@H]3C(CO)=CC(=O)C3=C(C)C[C@@H](O)[C@@H]12 [LACTUCIN]
EC (Haemonchus contortus [10]): 2.89 mM

Structure (SMILES): CC[C@H](CC[C@@H](C)[C@H]1CC[C@@H]2[C@]1(C)CC[C@H]1[C@@]2(C)CC=C2C[C@@H](O[C@@H]3O[C@H](CO)[C@@H](O)[C@H](O)[C@H]3O)CC[C@@]21C)C(C)C
IC50 (Caenorhabditis elegans): 140 µM | EC (Brugia malayi): >0.86 mM

Structure (SMILES): CCCCC[C@H](O)C[C@@H](O)CCc1ccc(O)c(OC)c1
EC (Rodentolepis nana): 0.001 mM

Structure (SMILES): C=CCc1ccc(O)c(OC)c1 [EUGENOL]
IC50 (Caenorhabditis elegans): 370 µM | IC50 (Meloidogyne incognita [4]): 400 µM

Structure (SMILES): O=C1OCCN2Oc3ccccc3C12 (stereo not given)
EC (Metaphire posthuma): 5.23 mM | EC (Ascaridia galli): 5.23 mM

Structure (SMILES): C=C1CC[C@H]2[C@@](C)(CCC[C@]2(C)C(=O)O)[C@@H]1C/C=C(\C)[C@@H]1CCc2c(C)c(CC3=C(O)C(C)(C)C(O)=C(C(C)=O)C3=O)c(O)c(C(=O)CCC)c2O1
IC50 [2]: 118 µM

Structure (SMILES): C[C@@H]1CC[C@]2(C(=O)O)CC[C@]3(C)C(=CC[C@@H]4[C@@]5(C)CC[C@H](O)C(C)(C)[C@@H]5CC[C@]43C)[C@@H]2[C@]1(C)O [POMOLIC ACID]
EC (Meloidogyne incognita [4]): 2.11 mM

Structure (SMILES): COc1cc(CC/C=C/C(=O)CCc2ccc(O)c(OC)c2)ccc1O
EC (Rodentolepis nana): 0.001 mM

Structure (SMILES): CCN(CC)c1ccc2c(C)cc(=O)oc2c1
EC (Metaphire posthuma): 4.32 mM | EC (Ascaridia galli): 4.32 mM

Structure (SMILES): O=C(O)c1ccc(O)c(O)c1 [PROTOCATECHUIC ACID]
EC (Meloidogyne incognita [11]): 0.78 mM

Structure (SMILES): CCC/C=C/C(=O)CCc1ccc(O)c(OC)c1
EC (Rodentolepis nana): 0.001 mM

Structure (SMILES): CC[C@H](CC[C@@H](C)[C@H]1CC[C@@H]2[C@]1(C)CC[C@H]1[C@@]2(C)CC=C2C[C@@H](O)CC[C@@]21C)C(C)C
EC (Brugia malayi): >1.2 mM

Structure (SMILES): CC(C)=CC(=O)O[C@@H]1CC(C)(C)C[C@H]2C3=CC(=O)[C@@H]4[C@]56CC[C@](O)(OC5)C(C)(C)[C@@H]6CC[C@@]4(C)[C@]3(C)CC[C@@]12C(=O)O
EC (Meloidogyne incognita [4]): 1.71 mM

Structure (SMILES): CC[C@H](CC[C@@H](C)[C@H]1CC[C@]2(C)[C@]1(C)CC[C@@H]1[C@@]3(C)CC[C@H](O[C@@H]4O[C@H](CO)[C@@H](O)[C@H](O)[C@H]4O)CC3=CC[C@]12C)C(C)C
EC [3]: 17.34 mM

IC50 (Panagrellus redivivus): 180 µM | IC50 [12]: 280 µM
Structure (SMILES): C=C1C(=O)O[C@@H]2[C@H]1CC/C(C)=C/CC[C@]1(C)O[C@@H]21

— ChEMBL document CHEMBL4004860, “Medicinal plants used as anthelmintics: Ethnomedical, pharmacological, and phytochemical studies” (Eur J Med Chem, 2017)
